Assay results published in PubChem BioAssay (NCI).
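Briefly, cells in 96-well plates were exposed to five compound concentrations for 48 h, and endpoints were estimated by linear interpolation. At the GI50, growth is halved. TGI is the concentration that stops growth completely.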

Assays:
Assay in all cases: inhibition of tumour cell growth, NCI panel, 48 h
786-0 renal = tested on: 786-0 renal
A498 renal = tested on: A498 renal
A549 NSCLC = tested on: A549 NSCLC
ACHN renal = tested on: ACHN renal
BT-549 breast = tested on: BT-549 breast
CAKI-1 renal = tested on: CAKI-1 renal
CCRF-CEM leukemia = tested on: CCRF-CEM leukemia
COLO 205 colon = tested on: COLO 205 colon
DU-145 prostate = tested on: DU-145 prostate
EKVX NSCLC = tested on: EKVX NSCLC
HCC-2998 colon = tested on: HCC-2998 colon
HCT-116 colon = tested on: HCT-116 colon
HCT-15 colon = tested on: HCT-15 colon
HL-60(TB) leukemia = tested on: HL-60(TB) leukemia
HOP-62 NSCLC = tested on: HOP-62 NSCLC
HS 578T breast = tested on: HS 578T breast
HT29 colon = tested on: HT29 colon
IGROV1 ovarian = tested on: IGROV1 ovarian
K-562 leukemia = tested on: K-562 leukemia
KM12 colon = tested on: KM12 colon
LOX IMVI melanoma = tested on: LOX IMVI melanoma
M14 melanoma = tested on: M14 melanoma
MALME-3M melanoma = tested on: MALME-3M melanoma
MCF7 breast = tested on: MCF7 breast
MDA-MB-231 breast = tested on: MDA-MB-231 breast
MDA-MB-435 = tested on: MDA-MB-435
MOLT-4 leukemia = tested on: MOLT-4 leukemia
NCI-H226 lung = tested on: NCI-H226 lung
NCI-H23 lung = tested on: NCI-H23 lung
NCI-H460 lung = tested on: NCI-H460 lung
NCI-H522 lung = tested on: NCI-H522 lung
NCI/ADR-RES ovarian = tested on: NCI/ADR-RES ovarian
OVCAR-3 ovarian = tested on: OVCAR-3 ovarian
OVCAR-4 ovarian = tested on: OVCAR-4 ovarian
OVCAR-5 ovarian = tested on: OVCAR-5 ovarian
OVCAR-8 ovarian = tested on: OVCAR-8 ovarian
RPMI-8226 leukemia = tested on: RPMI-8226 leukemia
RXF 393 renal = tested on: RXF 393 renal
SF-268 CNS = tested on: SF-268 CNS
SF-295 CNS = tested on: SF-295 CNS
SF-539 CNS = tested on: SF-539 CNS
SK-MEL-2 melanoma = tested on: SK-MEL-2 melanoma
SK-MEL-28 melanoma = tested on: SK-MEL-28 melanoma
SK-MEL-5 melanoma = tested on: SK-MEL-5 melanoma
SK-OV-3 ovarian = tested on: SK-OV-3 ovarian
SN12C renal = tested on: SN12C renal
SNB-19 CNS = tested on: SNB-19 CNS
SNB-75 CNS = tested on: SNB-75 CNS
SR leukemia = tested on: SR leukemia
SW-620 colon = tested on: SW-620 colon
T-47D breast = tested on: T-47D breast
TK-10 renal = tested on: TK-10 renal
U251 CNS = tested on: U251 CNS
UACC-257 melanoma = tested on: UACC-257 melanoma
UACC-62 melanoma = tested on: UACC-62 melanoma
UO-31 renal = tested on: UO-31 renal

In the case of CCS/C(Nc1ccccc1)=C(\C#N)C(=O)Nc1ccc(OC)cc1, the GI50 (786-0 renal) is reported as 4.14 µM, the TGI (786-0 renal) is reported as > 100 µM and the GI50 (A498 renal) is reported as 2.54 µM. The TGI (A498 renal) was 26.6 µM, the GI50 (A549 NSCLC) was 5.91 µM and the TGI (A549 NSCLC) was > 100 µM. The GI50 (ACHN renal) was 5.04 µM, the TGI (ACHN renal) was > 100 µM and the GI50 (BT-549 breast) was 2.8 µM. The TGI (BT-549 breast) was > 100 µM, the GI50 (CAKI-1 renal) was 3.39 µM and the TGI (CAKI-1 renal) was > 100 µM. The GI50 (CCRF-CEM leukemia) was 1.83 µM, the TGI (CCRF-CEM leukemia) was > 100 µM and the GI50 (COLO 205 colon) was 3.06 µM. It also gave a TGI (COLO 205 colon) of 11.2 µM, a GI50 (DU-145 prostate) of 3.48 µM and a TGI (DU-145 prostate) of 49.8 µM. For the same compound, the GI50 (EKVX NSCLC) was 4.42 µM, the TGI (EKVX NSCLC) was > 100 µM and the GI50 (HCC-2998 colon) was 6.56 µM. The TGI (HCC-2998 colon) was > 100 µM, the GI50 (HCT-116 colon) was 1.95 µM and the TGI (HCT-116 colon) was 16.4 µM. The GI50 (HCT-15 colon) was 1.19 µM, the TGI (HCT-15 colon) was > 100 µM and the GI50 (HL-60(TB) leukemia) was 2.87 µM. For the same compound, the TGI (HL-60(TB) leukemia) was > 100 µM, the GI50 (HOP-62 NSCLC) was 5.62 µM and the TGI (HOP-62 NSCLC) was > 100 µM. For the same compound, the GI50 (HS 578T breast) was 4.07 µM, the TGI (HS 578T breast) was > 100 µM and the GI50 (HT29 colon) was 3.47 µM. For the same compound, the TGI (HT29 colon) was 33.3 µM, the GI50 (IGROV1 ovarian) was 5.3 µM and the TGI (IGROV1 ovarian) was > 100 µM. The GI50 (K-562 leukemia) was 0.436 µM, the TGI (K-562 leukemia) was > 100 µM and the GI50 (KM12 colon) was 2.8 µM. For the same compound, the TGI (KM12 colon) was > 100 µM, the GI50 (LOX IMVI melanoma) was 6.16 µM and the TGI (LOX IMVI melanoma) was > 100 µM. For the same compound, the GI50 (M14 melanoma) was 2.27 µM, the TGI (M14 melanoma) was 87.4 µM and the GI50 (MALME-3M melanoma) was 47.3 µM. For the same compound, the TGI (MALME-3M melanoma) was > 100 µM, the GI50 (MCF7 breast) was 2.71 µM and the TGI (MCF7 breast) was > 100 µM. The GI50 (MDA-MB-231 breast) was 4.14 µM, the TGI (MDA-MB-231 breast) was 36.5 µM and the GI50 (MDA-MB-435) was 0.37 µM. For the same compound, the TGI (MDA-MB-435) was 1.89 µM, the GI50 (MOLT-4 leukemia) was 2.61 µM and the TGI (MOLT-4 leukemia) was > 100 µM. For the same compound, the GI50 (NCI-H226 lung) was 5.45 µM, the TGI (NCI-H226 lung) was 50.7 µM and the GI50 (NCI-H23 lung) was 4.9 µM. The TGI (NCI-H23 lung) was > 100 µM, the GI50 (NCI-H460 lung) was 3.14 µM and the TGI (NCI-H460 lung) was 34.2 µM. It also gave a GI50 (NCI-H522 lung) of 2.2 µM, a TGI (NCI-H522 lung) of 9.68 µM and a GI50 (NCI/ADR-RES ovarian) of 2.62 µM. For the same compound, the TGI (NCI/ADR-RES ovarian) was > 100 µM, the GI50 (OVCAR-3 ovarian) was 2.6 µM and the TGI (OVCAR-3 ovarian) was 8.59 µM. For the same compound, the GI50 (OVCAR-4 ovarian) was 7.61 µM, the TGI (OVCAR-4 ovarian) was > 100 µM and the GI50 (OVCAR-5 ovarian) was 5.52 µM. For the same compound, the TGI (OVCAR-5 ovarian) was > 100 µM, the GI50 (OVCAR-8 ovarian) was 4.37 µM and the TGI (OVCAR-8 ovarian) was > 100 µM. For the same compound, the GI50 (RPMI-8226 leukemia) was 2.52 µM, the TGI (RPMI-8226 leukemia) was > 100 µM and the GI50 (RXF 393 renal) was 2.24 µM. For the same compound, the TGI (RXF 393 renal) was 7.86 µM, the GI50 (SF-268 CNS) was 6.8 µM and the TGI (SF-268 CNS) was > 100 µM. The GI50 (SF-295 CNS) was 3.06 µM, the TGI (SF-295 CNS) was > 100 µM and the GI50 (SF-539 CNS) was 1.96 µM. For the same compound, the TGI (SF-539 CNS) was 4.81 µM, the GI50 (SK-MEL-2 melanoma) was 3.01 µM and the TGI (SK-MEL-2 melanoma) was > 100 µM. The GI50 (SK-MEL-28 melanoma) was 15.3 µM, the TGI (SK-MEL-28 melanoma) was > 100 µM and the GI50 (SK-MEL-5 melanoma) was 2.2 µM. It also gave a TGI (SK-MEL-5 melanoma) of 8.19 µM, a GI50 (SK-OV-3 ovarian) of 3.28 µM and a TGI (SK-OV-3 ovarian) of 50.2 µM. The GI50 (SN12C renal) was 5.91 µM, the TGI (SN12C renal) was > 100 µM and the GI50 (SNB-19 CNS) was 3.55 µM. For the same compound, the TGI (SNB-19 CNS) was > 100 µM, the GI50 (SNB-75 CNS) was 2.13 µM and the TGI (SNB-75 CNS) was 7.21 µM. For the same compound, the GI50 (SR leukemia) was 1.54 µM, the TGI (SR leukemia) was > 100 µM and the GI50 (SW-620 colon) was 2.55 µM. For the same compound, the TGI (SW-620 colon) was > 100 µM, the GI50 (T-47D breast) was 4.08 µM and the TGI (T-47D breast) was > 100 µM. For the same compound, the GI50 (TK-10 renal) was 24.3 µM, the TGI (TK-10 renal) was > 100 µM and the GI50 (U251 CNS) was 4.42 µM. For the same compound, the TGI (U251 CNS) was > 100 µM, the GI50 (UACC-257 melanoma) was 21.2 µM and the TGI (UACC-257 melanoma) was > 100 µM. For the same compound, the GI50 (UACC-62 melanoma) was 2.58 µM, the TGI (UACC-62 melanoma) was > 100 µM and the GI50 (UO-31 renal) was 5.49 µM. For the same compound, the TGI (UO-31 renal) was > 100 µM.
